Results: US12171230B2, “Herbicidal compositions” (Bayer Aktiengesellschaft, priority 2018, dated 2024)

Experiments:
Format in all cases: in vivo
Setaria viridis = test: Post-emergence herbicidal action against Setaria viridis; conditions: 21 DAT
Method in brief: (§1)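 Greenhouse pot test: three-leaf-stage plants, three weeks from sowing, sprayed with spray-powder or emulsion-concentrate formulations at several dosages (300 to 800 l/ha water). Efficacy rated visually against untreated plants some 3 to 4 weeks later, with Colby formula giving expected combination effect.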

Poa annua = test: Post-emergence herbicidal action against Poa annua
Method in brief: as §1

Sorghum halepense = test: Post-emergence herbicidal action against Sorghum halepense
Method in brief: as §1

Chenopodium album = test: Post-emergence herbicidal action against Chenopodium album; conditions: g of a.i./ha: 180, 100, 100 + 180
Procedure: When the observed efficacies exceed the formal sum total of the values of the tests with individual applications, they also exceed the expected value according to Colby, which is calculated using the formula below and is likewise regarded as an indication of synergism (cf. S. R. Colby; in Weeds 15 (1967) p. 20 to 22): E^C=A+B−([…])
Here: • A=efficacy of the active compound (A) in % at an application rate of a g a.i./ha; • B=efficacy of the active compound (B) in % at an application rate of b g a.i./ha; • E^C=expected value of the effect of the combination (A)+(B) in % at the combined application rate a+b g a.i./ha.
Seeds or rhizome pieces of mono- and dicotyledonous weeds are placed in sandy loam in pots, covered with soil and grown in a greenhouse under good growth conditions (temperature, air humidity, water supply). Three weeks after sowing, the test plants were treated at the three-leaf stage with the compositions according to the invention. The compositions according to the invention formulated as spray powders or as emulsion concentrates were sprayed onto the green plant parts in various dosages with an application rate of 300 to 800 l/ha of water (equivalent). After the test plants have been left to stand in the greenhouse under optimal growth conditions for about 3 to 4 weeks, the action of the preparations is scored visually in comparison to untreated controls. The compositions according to the invention also have good post-emergence herbicidal activity against a broad spectrum of economically important gramineous and broadleaf weeds.

Abutilon theophrasti = test: Post-emergence herbicidal action against Abutilon theophrasti; conditions: g of a.i./ha: 90, 30, 15, 15 + 90, 15 + 30
Method in brief: (§2)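 Each treatment was applied at a rate expressed as g of 100% active compound per ha, and the effect was scored a given number of days later (DAT). Reference values for combinations were calculated two ways: E^A, the sum of individual effects, and E^C, Colby's expected value.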

Lolium rigidum = test: Post-emergence herbicidal action against Lolium rigidum
Method in brief: as §2

Amaranthus palmeri = test: Post-emergence herbicidal action against Amaranthus palmeri; conditions: 21 DAT; 30 g of a.i./ha
Method in brief: as §1

Kochia scoparia = test: Post-emergence herbicidal action against Kochia scoparia; conditions: g of a.i./ha by row: 30, 5, 5 + 30
Description: (§3) The following abbreviations are used in the description and the tables that follow: • g of a.i./ha=grams of active substance (active ingredient) (=100% active compound) per hectare; • The sum total of the effects of the individual applications is reported under E^A; • expected values according to Colby are each reported under E^C.
(§4) The rating period is reported in days after application (DAT).

Phalaris minor = test: Post-emergence herbicidal action against Phalaris minor
Method in brief: as §2

[1] = test system: Lolium rigidum (resistant biotype); test: Post-emergence herbicidal action against Lolium rigidum (resistant biotype)
Method in brief: as §2

Alopecurus myosuroides = test: Post-emergence herbicidal action against Alopecurus myosuroides
Method in brief: as §2

Bidens pilosa = test: Post-emergence herbicidal action against Bidens pilosa; conditions: for Herbicidal action against Bidens pilosa: 21 DAT
Method in brief: as §1

Veronica hederifolia = test: Post-emergence herbicidal action against Veronica hederifolia; conditions: g of a.i./ha: 16, 270, 16 + 270
Description: as §3, §4

Galium aparine = test: Post-emergence herbicidal action against Galium aparine
Method in brief: as §1

Digitaria horizontalis = test: Post-emergence herbicidal action against Digitaria horizontalis; conditions: (Z61) post-emergence; g of a.i./ha: 200, 100, 100 + 200
Description: as §3, §4

Digitaria sanguinalis = test: Post-emergence herbicidal action against Digitaria sanguinalis; conditions: (Z61) post-emergence; g of a.i./ha: 180, 100, 100 + 180
Method in brief: as §1

Viola tricolor = test: Post-emergence herbicidal action against Viola tricolor
Method in brief: as §2

[2] = (Z61) post-emergence, g of a.i./ha: 4, 1, 270, 90, 4 + 270, 4 + 90, 1 + 270, 1 + 90, 90 g of a.i./ha
[3] = (Z61) post-emergence, g of a.i./ha: 4, 1, 270, 90, 4 + 270, 4 + 90, 1 + 270, 1 + 90, 270 g of a.i./ha

`O=C(Nc1ccc(F)cc1F)c1cccnc1Oc1cccc(C(F)(F)F)c1` [(B2.18) Diflufenican] was tested, and the “Herbicidal action against Setaria viridis” value (Setaria viridis; 30 g of a.i./ha) was 10%, the “Herbicidal action against Setaria viridis” value (Setaria viridis; 90 g of a.i./ha) was 10% and the “Herbicidal action against Setaria viridis” value (Setaria viridis; 270 g of a.i./ha) was 15%. For the same molecule, the “Herbicidal action 28 DAT against Poa annua L.” value (Poa annua; 30 g of a.i./ha) was 0%, the “Herbicidal action 28 DAT against Poa annua L.” value (Poa annua; 90 g of a.i./ha) was 0% and the “Herbicidal action 28 DAT against Poa annua L.” value (Poa annua; 270 g of a.i./ha) was 0%. For the same molecule, the “Herbicidal action 14 DAT against Poa annua L.” value (Poa annua; (Z61) post-emergence, g of a.i./ha: 16, 1, 270, 90, 16 + 270, 16 + 90, 1 + 270, 1 + 90) was 20%, the “Herbicidal action 28 DAT against Poa annua L.” value (Poa annua; (Z119) post-emergence, g of a.i./ha: 16, 1, 270, 90, 30, 16 + 270, 16 + 90, 16 + 30, 1 + 270) was 0% and the “Herbicidal action against Sorghum halepense” value (Sorghum halepense; 21 DAT, 30 g of a.i./ha) was 10%. For the same molecule, the “Herbicidal action 21 DAT against Sorghum halepense” value (Sorghum halepense; (Z3) post-emergence, g of a.i./ha: 90, 30, 15, 5, 15 + 90, 5 + 90, 15 + 30, 5 + 30) was 10%, the “Herbicidal action 27 DAT against Chenopodium album” value (Chenopodium album) was 20% and the “Herbicidal action 21 DAT against Abutilon theophrasti” value (Abutilon theophrasti) was 10%. The “Herbicidal action 28 DAT against Lolium rigidum” value (Lolium rigidum; 90 g of a.i./ha) was 0%, the “Herbicidal action 28 DAT against Lolium rigidum” value (Lolium rigidum; 270 g of a.i./ha) was 0% and the “Herbicidal action 14 DAT against Lolium rigidum” value (Lolium rigidum; (Z61) post-emergence, g of a.i./ha: 1, 270, 90, 30, 1 + 270, 1 + 90, 1 + 30, 30 g of a.i./ha) was 0%. For the same molecule, the “Herbicidal action 14 DAT against Lolium rigidum” value (Lolium rigidum; (Z61) post-emergence, g of a.i./ha: 1, 270, 90, 30, 1 + 270, 1 + 90, 1 + 30, 270 g of a.i./ha) was 10%, the “Herbicidal action 28 DAT against Lolium rigidum” value (Lolium rigidum; [2]) was 15% and the “Herbicidal action 28 DAT against Lolium rigidum” value (Lolium rigidum; [3]) was 20%. The “Herbicidal action 14 DAT against Lolium rigidum” value (Lolium rigidum; (Z119) post-emergence, g of a.i./ha by row: 16, 1, 90, 270, 16 + 90, 1 + 270) was 5%, the “Herbicidal action 28 DAT against Lolium rigidum” value (Lolium rigidum; (Z119) post-emergence, g of a.i./ha: 16, 4, 1, 270, 90, 30, 16 + 270, 16 + 90, 16 + 30, 4 + 270, 4 + 90, 4 + 30, 1 + 270) was 0% and the “Herbicidal action against Amaranthus palmeri (res.)” value (Amaranthus palmeri) was 40%. For the same molecule, the “Herbicidal action 21 DAT against Kochia scoparia” value (Kochia scoparia) was 25%, the “Herbicidal action 28 DAT against Phalaris minor” value (Phalaris minor; 30 g of a.i./ha) was 0% and the “Herbicidal action 28 DAT against Phalaris minor” value (Phalaris minor; 90 g of a.i./ha) was 0%. The “Herbicidal action 28 DAT against Phalaris minor” value (Phalaris minor; 270 g of a.i./ha) was 5%, the “Herbicidal action 28 DAT against Phalaris minor” value (Phalaris minor; (Z119) post-emergence, g of a.i./ha: 16, 4, 270, 90, 30, 16 + 270, 16 + 90, 16 + 30, 4 + 270, 4 + 30, 90 g of a.i./ha) was 0% and the “Herbicidal action 28 DAT against Phalaris minor” value (Phalaris minor; (Z119) post-emergence, g of a.i./ha: 16, 4, 270, 90, 30, 16 + 270, 16 + 90, 16 + 30, 4 + 270, 4 + 30, 270 g of a.i./ha) was 5%. The “Herbicidal action 14 DAT against Phalaris minor” value (Phalaris minor; (Z119) post-emergence, g of a.i./ha: 16, 4, 270, 90, 270, 16 + 270, 16 + 90, 4 + 270) was 5%, the “Herbicidal action 28 DAT against Lolium rigidum (resistant biotype)” value (from here on “Herbicidal action 28 DAT … (resistant biotype)”) ([1]; 30 g of a.i./ha) was 0% and the “Herbicidal action 28 DAT … (resistant biotype)” value ([1]; 90 g of a.i./ha) was 0%. For the same molecule, the “Herbicidal action 28 DAT … (resistant biotype)” value ([1]; 270 g of a.i./ha) was 0%, the “Herbicidal action 14 DAT against Lolium rigidum (resistant biotype)” value (shortened to “Herbicidal action 14 DAT … (resistant biotype)”) ([1]; (Z61) post-emergence, g of a.i./ha by row: 4, 1, 270, 90, 4 + 270, 1 + 270, 1 + 90, 90 g of a.i./ha) was 0% and the “Herbicidal action 14 DAT … (resistant biotype)” value ([1]; (Z61) post-emergence, g of a.i./ha by row: 4, 1, 270, 90, 4 + 270, 1 + 270, 1 + 90, 270 g of a.i./ha) was 10%. For the same molecule, the “Herbicidal action 28 DAT … (resistant biotype)” value ([1]; (Z61) post-emergence, g of a.i./ha: 4, 1, 270, 90, 4 + 270, 1 + 90, 90 g of a.i./ha) was 10%, the “Herbicidal action 28 DAT … (resistant biotype)” value ([1]; (Z61) post-emergence, g of a.i./ha: 4, 1, 270, 90, 4 + 270, 1 + 90, 270 g of a.i./ha) was 20% and the “Herbicidal action 14 DAT … (resistant biotype)” value ([1]; (Z119) post-emergence, g of a.i./ha by row: 16, 1, 90, 30, 270, 16 + 90, 16 + 30, 1 + 270, 30 g of a.i./ha) was 0%. For the same molecule, the “Herbicidal action 14 DAT … (resistant biotype)” value ([1]; (Z119) post-emergence, g of a.i./ha by row: 16, 1, 90, 30, 270, 16 + 90, 16 + 30, 1 + 270, 90 g of a.i./ha) was 5%, the “Herbicidal action 28 DAT … (resistant biotype)” value ([1]; (Z119) post-emergence, g of a.i./ha: 1, 270, 1 + 270) was 0% and the “Herbicidal action 28 DAT against Alopecurus myosuroides” value (Alopecurus myosuroides; (Z61) post-emergence, g of a.i./ha by row: 16, 4, 1, 270, 90, 16 + 270, 4 + 270, 4 + 90, 1 + 270, 1 + 90, 90 g of a.i./ha) was 15%. For the same molecule, the “Herbicidal action 28 DAT against Alopecurus myosuroides” value (Alopecurus myosuroides; (Z61) post-emergence, g of a.i./ha by row: 16, 4, 1, 270, 90, 16 + 270, 4 + 270, 4 + 90, 1 + 270, 1 + 90, 270 g of a.i./ha) was 20%, the “Herbicidal action 14 DAT against Alopecurus myosuroides” value (Alopecurus myosuroides; [2]) was 15% and the “Herbicidal action 14 DAT against Alopecurus myosuroides” value (Alopecurus myosuroides; [3]) was 20%. For the same molecule, the “Herbicidal action 28 DAT against Alopecurus myosuroides” value (Alopecurus myosuroides; (Z119) post-emergence, g of a.i./ha by row: 16, 1, 270, 90, 30, 16 + 270, 16 + 90, 16 + 30, 1 + 270, 1 + 90) was 0%, the “Herbicidal action 14 DAT against Alopecurus myosuroides” value (Alopecurus myosuroides; (Z119) post-emergence, g of a.i./ha: 16, 1, 270, 16 + 270, 1 + 270) was 10% and the “Herbicidal action against Bidens pilosa” value (Bidens pilosa; 90 g of a.i./ha) was 35%. For the same molecule, the “Herbicidal action against Bidens pilosa” value (Bidens pilosa; 270 g of a.i./ha) was 45%, the “Herbicidal action 21 DAT against Bidens pilosa” value (Bidens pilosa; post-emergence, g of a.i./ha: 90, 30, 15, 15 + 90, 15 + 30) was 10% and the “Herbicidal action 14 DAT against Veronica hederifolia” value (Veronica hederifolia) was 85%. For the same molecule, the “Herbicidal action 28 DAT against Galium aparine” value (Galium aparine; 30 g of a.i./ha) was 0%, the “Herbicidal action 28 DAT against Galium aparine” value (Galium aparine; 90 g of a.i./ha) was 20% and the “Herbicidal action 14 DAT against Galium aparine” value (Galium aparine; (Z119) post-emergence, g of a.i./ha by row: 1, 30, 1 + 30) was 30%. For the same molecule, the “Herbicidal action 28 DAT against Galium aparine” value (Galium aparine; (Z119) post-emergence, g of a.i./ha: 16, 4, 30, 16 + 30, 4 + 30) was 0%, the “Herbicidal action 28 DAT against Digitaria horizontalis” value (Digitaria horizontalis) was 0% and the “Herbicidal action 37 DAT against Digitaria sanguinalis” value (Digitaria sanguinalis) was 0%. For the same molecule, the “Herbicidal action 28 DAT against Viola tricolor” value (Viola tricolor; (Z61) post-emergence, g of a.i./ha: 16, 1, 30, 16 + 30, 1 + 30) was 40% and the “Herbicidal action 14 DAT against Viola tricolor” value (Viola tricolor; (Z119) post-emergence, g of a.i./ha: 16, 270, 16 + 270) was 40%.
